# Results reported in US7105669B1, “Quinazoline derivatives” (AstraZeneca AB, priority 1999, dated 2006).
# Legend:
# MCF-7 cells [1] = assay: In vitro cell proliferation assay, Assay 2 (BrdU incorporation); format: cell-based; conditions: Homo sapiens, MCF7; MCF-7, 48 hours with compound, 2 hour BrdU labelling; read-out: concentration giving 50% inhibition of BrdU incorporation
# Source text: (§1) These and other assays can be used to determine the ability of a test compound to inhibit the growth of adherent mammalian cell lines, for example the human tumour cell line MCF7.
# This assay determines the ability of a test compound to inhibit the incorporation of the thymidine analogue, 5′-bromo-2′-deoxy-uridine (BrdU) into cellular DNA. MCF-7 or other adherent cells were typically seeded at 0.8×10^4 cells per well in DMEM (Sigma Aldrich) without phenol red, plus 10% foetal calf serum, 1% L-glutamine and 1% penicillin/streptomycin (50 μl/well) in 96 well tissue culture treated 96 well plates (Costar) and allowed to adhere overnight. […] The optical density of the wells was then determined at 690 nm wavelength using a Titertek Multiscan plate reader. […]
# MCF-7 cells [2] = assay: In vitro cell proliferation assay, Assay 1 (CyQUANT cell density); format: cell-based; conditions: Homo sapiens, MCF7, 72 h, MCF-7, 3 days with compound, read-out: concentration giving 50% inhibition of cell proliferation
# Source text: as §1
# MCF-7 (ATCC HTB-22) or other adherent cells were typically seeded at 1×10^3 cells per well (excluding the peripheral wells) in DMEM (Sigma Aldrich) without phenol red, plus 10% foetal calf serum, 1% L-glutamine and 1% penicillin/streptomycin in 96 well tissue culture treated clear plates (Costar). The following day (day 1), the media was removed from a no treatment control plate and the plate stored at −80° C. The remaining plates were dosed with compound (diluted from 10 mM stock in DMSO using DMEM (without phenol red, 10% FCS, 1% L-glutamine, 1% penicillin/streptomycin). Untreated control wells were included on each plate. After 3 days in the presence/absence of compound (day 4) the media was removed and the plates stored at −80° C. Twenty four hours later the plates were thawed at room temperature and cell density determined using the CyQUANT cell proliferation assay kit (c-7026/c-7027 Molecular Probes Inc.) according to manufacturers directions. Briefly, 200 μl of a cell lysis/dye mixture (10 μl of 20× cell lysis buffer B, 190 μl of sterile water, 0.25 μl of CYQUANT GR dye) was added to each well and the plates incubated at room temperature for 5 minutes in the dark. […]
# aurora2 kinase = biological target: T1, aurora2 kinase (Homo sapiens, UniProt O14965); assay: In vitro aurora2 kinase inhibition test; format: biochemical
# T1 construct: made in house; host or cells: Spodoptera frugiperda Sf21 insect cells (baculovirus, pFastBac HTc)
# T1 sequence (O14965 1-403): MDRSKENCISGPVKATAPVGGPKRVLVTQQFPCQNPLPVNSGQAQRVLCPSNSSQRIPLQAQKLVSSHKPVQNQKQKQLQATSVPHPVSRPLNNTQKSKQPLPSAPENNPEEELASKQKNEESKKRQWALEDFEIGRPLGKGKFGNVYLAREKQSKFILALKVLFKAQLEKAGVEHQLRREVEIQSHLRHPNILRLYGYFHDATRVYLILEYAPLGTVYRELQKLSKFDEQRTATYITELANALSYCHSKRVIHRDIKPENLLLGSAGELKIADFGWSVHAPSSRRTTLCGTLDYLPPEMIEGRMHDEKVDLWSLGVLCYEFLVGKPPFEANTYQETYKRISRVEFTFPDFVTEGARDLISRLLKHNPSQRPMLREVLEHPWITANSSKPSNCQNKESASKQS
# MCF7 cells = assay: In vitro cell cycle analysis assay (FACS, propidium iodide); format: cell-based, human; conditions: 12.76 μM, 24 hours
# Description: This assay determines the ability of a test compound to arrest cells in specific phases of the cell cycle. Many different mammalian cell lines could be used in this assay and MCF7 cells are included here as an example. MCF-7 cells were seeded at 3×10^5 cells per T25 flask (Costar) in 5 ml DMEM (no phenol red 10% FCS, 1% L-glutamine 1% penicillin/streptomycin). Flasks were then incubated overnight in a humidified 37° C. incubator with 5% CO2. The following day 1 ml of DMEM (no phenol red 10% FCS, 1% L-glutamine 1% penicillin/streptomycin) carrying the appropriate concentration of test compound solubilised in DMSO was added to the flask. A no compound control treatments was also included (0.5% DMSO). The cells were then incubated for a defined time (usually 24 hours) with compound. After this time the media was aspirated from the cells and they were washed with 5 ml of prewarmed (37° C.) sterile PBSA, then detached from the flask by brief incubation with trypsin and followed by resuspension in 10 ml of 1% Bovine Serum Albumin (BSA, Sigma-Aldrich Co.) in sterile PBSA. The samples were then centrifuged at 2200 rpm for 10 min. The supernatant was aspirated and the cell pellet was resuspended in 200 μl of 0.1% (w/v) Tris sodium citrate, 0.0564% (w/v) NaCl, 0.03% (v/v) Nonidet NP40, [pH 7.6]. Propridium Iodide (Sigma Aldrich Co.) was added to 40 μg/ml and RNAase A (Sigma Alrich Co.) to 100 μg/ml. The cells were then incubated at 37° C. for 30 minutes. The samples were centrifuged at 2200 rpm for 10 min, the supernatant removed and the remaining pellet (nuclei) resuspended in 200 μl of sterile PBSA. […] The samples were then transferred to LPS tubes and DNA content per cell analysed by Fluorescence activated cell sorting (FACS) using a FACScan flow cytometer (Becton Dickinson). Typically 25000 events were counted and recorded using CellQuest v1.1 software (Verity Software). Cell cycle distribution of the population was calculated using Modfit software (Verity Software) and expressed as percentage of cells in G0/G1, S and G2/M phases of the cell cycle. […]
structure (smiles),measurement,setting,value
COc1cc2ncnc(Nc3ccc(/C=C/C(=O)NC4CCCC(C)C4)cc3)c2cc1OC (stereo not drawn) [Compound 18],IC50,MCF-7 cells [1],2.47 µM
same,IC50,MCF-7 cells [2],6.38 µM
same,IC50,aurora2 kinase,0.117 µM
same,% Cells in G1,MCF7 cells,30.96%
same,% Cells in G2/M,MCF7 cells,49.62%
same,% Cells in S,MCF7 cells,19.42%
